From patent publication US4616003A, “N^6 -dihydroxypropyladenosines” (Warner-Lambert Company, priority 1985, dated 1986) come the findings set out here.

pIC50: −log10 of the molar value. Where two headings read alike, the source gives them in different places.

In one experiment the target is T1, adenosine A2 receptor (Rattus norvegicus, UniProt P30543).
T1 construct: Brains were thawed and then kept on ice while the striata were dissected out; tissue Pel-Freez (Rogers, Ark.); host or cells: rat striatum (Sprague-Dawley brains; Long-Evans gave essentially identical results)
T1 sequence (P30543 whole entry): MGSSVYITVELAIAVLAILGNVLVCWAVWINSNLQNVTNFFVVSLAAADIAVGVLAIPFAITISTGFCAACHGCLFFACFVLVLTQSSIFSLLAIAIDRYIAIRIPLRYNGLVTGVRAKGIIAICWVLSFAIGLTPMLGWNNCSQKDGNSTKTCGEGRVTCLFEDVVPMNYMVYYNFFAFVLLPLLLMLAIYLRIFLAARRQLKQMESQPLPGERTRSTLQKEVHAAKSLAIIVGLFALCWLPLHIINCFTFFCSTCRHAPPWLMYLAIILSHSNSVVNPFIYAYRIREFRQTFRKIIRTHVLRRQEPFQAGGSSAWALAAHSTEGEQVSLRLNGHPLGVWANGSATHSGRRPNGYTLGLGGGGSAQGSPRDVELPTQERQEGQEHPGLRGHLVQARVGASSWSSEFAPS
Put plainly: Adenosine A2 receptor binding (RBA-2), displacement of [3H]NECA. On the procedure: Brains from 200-500 g mixed sex Sprague-Dawley rats were purchased from Pel-Freez (Rogers, Ark.). […] Brains were thawed and then kept on ice while the striata were dissected out. […] The suspension was centrifuged at 50,000 xg for ten minutes, the supernatant discarded, the pellet resuspended in 10 vol ice-cold Tris as above, recentrifuged, resuspended at 1 g/5 ml, and stored in plastic vials at -70° C. […] When needed, tissue was thawed at room temperature, disrupted in a Polytron, and kept on ice until used.
All incubations were for 60 minutes at 25° C. in 12×75 mm glass tubes containing 1 ml Tris with 5 mg original tissue weight of rat weight of rat striatal membranes, 4 nM [^3 H]-N-ethyl adenosine-5'-carboxamide ([^3 H]NECA), 50 nM N^6 -cyclopentyladenosine (to eliminate A1 receptor binding), 10 mM MgCl2, 0.1 units/ml of adenosine deaminase and 1% dimethylsulfoxide. N^6 -Cyclopentyladenosine was dissolved at 10 mM in 0.02N HCl and diluted in Tris. […] Test compounds were dissolved at 10 mM in dimethylsulfoxide on the same day as the experiment, and diluted in dimethylsulfoxide to 100× the final incubation concentration. […] [^3 H]NECA was diluted to 40 nM in Tris. The membrane suspension (5 mg/0.79 ml) contained sufficient MgCl2 and adenosine deaminase to give 10 mM and 0.1 units/ml, respectively, final concentration in the incubation. […] After all additions, the rack of tubes was vortexed, and the tubes were then incubated for 60 min at 25° C. in a shaking water bath. The rack of tubes was vortexed an additional time halfway through the incubation.
Incubations were terminated by filtration through 2.4 cm GF/B filters under reduced pressure. Each tube was filtered as follows: the contents of the tube were poured onto the filter, 4 ml of ice-cold Tris were added to the tube and the contents poured onto the filter, and the filter was washed twice with 4 ml of ice-cold Tris. The filtration was complete in about twelve seconds.
Nonspecific binding was defined as binding in the presence of 100 μM N^6 -cyclopentyladenosine, and specific binding was defined as total binding minus nonspecific binding. The IC50 was calculated by weighted nonlinear least squares curve-fitting to the mass-action equation. [formula] where Y is cpm bound
T is cpm total binding without drug
S is cpm specific binding without drug
D is the concentration of drug and
K is the IC50 of the drug
Weighting factors were calculated under the assumption that the standard deviation was proportional to the predicted value of Y. Nonspecific binding was treated as a very large (infinite) concentration of drug in the computer analysis.

Another experiment concerns male Swiss-Webster mice. Put plainly: Antiwrithing (AW) test, acetic acid. The class given is in vivo. To be noted: Mus musculus, sc; subcutaneous, 20 minutes before acetic acid i.p.; read-out: ED50, suppression of writhing by 50% relative to vehicle controls. As for the experimental part:
The antiwrithing (AW) test provides preliminary assessment of compounds with potential analgesic activity. The test is performed in male Swiss-Webster mice. Compounds are administered subcutaneously in aqueous 0.2% methylcellulose or other appropriate vehicles in volumes of 10 ml/kg. Dosages represent active moiety.
Acetic acid (0.6%, 10 ml/kg) is injected intraperitoneally 20 minutes after administration of the adenosine agonist. Writhing movements are counted for five minutes starting seven minutes after the acetic acid injection. Writhing is defined as abdominal constriction and stretching of the body and hind legs with concave arching of the back. Data are expressed as ED50 values, where the ED50 is the dose necessary to suppress writhing by 50% relative to vehicle controls. ED50 values are calculated by nonlinear regression analysis.

Where [1] appears, read: 4 nM [3H]NECA, 50 nM N6-cyclopentyladenosine, rat striatal membranes, read-out: RBA-2 (IC50, adenosine A2 receptor affinity).

Take `CC1(C)OCC(CNc2ncnc3c2ncn3[C@@H]2O[C@H](CO)[C@@H](O)[C@H]2O)O1` (stereo partly drawn) [Example 4, (R,S)-N^6-[2,3Dihydroxypropylisopropylidene]adenosine]: the pIC50 at adenosine A2 receptor (setting [1]) is 4.62.

Compound `OC[C@@H](O)CNc1ncnc2c1ncn2[C@@H]1O[C@H](CO)[C@@H](O)[C@H]1O` [Example 3] showed a pIC50 on adenosine A2 receptor of 4.70.

As for `OCC(O)CNc1ncnc2c1ncn2[C@@H]1O[C@H](CO)[C@@H](O)[C@@H]1O` (stereo partly drawn) [Example 1, (R,S)-N^6 [2,3-Dihydroxypropyl]adenosine], the pIC50 at adenosine A2 receptor (setting [1]) is 4.72. Also, in the experiment on male Swiss-Webster mice, the ED50 turned out to be 0.07 mg/kg.

Turning to `Nc1nc(NCC(O)CO)c2ncn([C@@H]3O[C@H](CO)[C@@H](O)[C@H]3O)c2n1` (stereo partly drawn) [Example 8], on adenosine A2 receptor (setting [1]), the negative logarithm of the IC50 (pIC50) is 4.12.

As for `CC1(C)OC[C@@H](CNc2ncnc3c2ncn3[C@@H]2O[C@H](CO)[C@@H](O)[C@H]2O)O1` [Example 5, (R)-N^6-[2,3-Dihydroxypropylisopropylidene]-adenosine], the negative logarithm of the IC50 (pIC50) at adenosine A2 receptor (setting [1]) was 4.82.
